The assay addresses Prostaglandin F2-alpha receptor (Mus musculus) (UniProt P43117). Description: Efficacy for stimulation of prostanoid FP receptor-linked phosphoinositide turnover in Swiss 3T3 mouse fibroblast cells.
Chain of Prostaglandin F2-alpha receptor (Mus musculus) (P43117 whole entry, looked up): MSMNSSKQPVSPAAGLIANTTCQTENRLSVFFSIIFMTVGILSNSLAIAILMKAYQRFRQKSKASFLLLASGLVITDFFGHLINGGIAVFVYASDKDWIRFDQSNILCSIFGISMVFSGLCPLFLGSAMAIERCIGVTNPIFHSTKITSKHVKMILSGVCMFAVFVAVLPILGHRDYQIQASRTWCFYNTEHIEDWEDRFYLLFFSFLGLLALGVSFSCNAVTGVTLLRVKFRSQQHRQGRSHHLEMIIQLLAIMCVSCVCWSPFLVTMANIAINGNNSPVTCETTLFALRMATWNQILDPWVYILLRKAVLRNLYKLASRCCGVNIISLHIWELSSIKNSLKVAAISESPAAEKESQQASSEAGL
As usually defined, the EC50 is the concentration that produces a half-maximal response. A higher EC50 goes with a need for much substance. For `CC(C)OC(=O)CCC/C=C/C[C@@H]1[C@@H](/C=C/C(O)COc2cccc(C(F)(F)F)c2)[C@H](O)C[C@@H]1O` (stereo partly drawn) [(E)-7-{(1R,2R,3R,5S)-3,5-Dihydroxy-2-[(E)-3-hydroxy-4-(3-trifluoromethyl-phenoxy)-but-1-enyl]-cyclopentyl}-hept-5-enoic acid isopropyl ester], the concentration giving a half-maximal response (EC50) stood at 2.7 nM. The figure for `CCCCC[C@@H](O)/C=C/[C@H]1OC[C@H](O)[C@@H]1C/C=C\CCCC(=O)O` [(Z)-7-[(2R,3S,4R)-4-Hydroxy-2-((E)-(R)-3-hydroxy-oct-1-enyl)-tetrahydro-furan-3-yl]-hept-5-enoic acid] is > 10000 nM. With `CCCCC[C@H](O)/C=C/[C@H]1OC[C@H](O)[C@@H]1C/C=C\CCCC(=O)O` [(Z)-7-[(2R,3S,4R)-4-Hydroxy-2-((E)-(S)-3-hydroxy-oct-1-enyl)-tetrahydro-furan-3-yl]-hept-5-enoic acid] the figure was 2380 nM; with `O=C(O)CC/C=C\CCC[C@H]1[C@@H](O)CO[C@@H]1/C=C/[C@@H](O)COc1ccccc1` [(Z)-8-[(2R,3S,4R)-4-Hydroxy-2-((E)-(R)-3-hydroxy-4-phenoxy-but-1-enyl)-tetrahydro-furan-3-yl]-oct-4-enoic acid], 57 nM; with `O=C(O)CCCC/C=C\C[C@H]1[C@@H](O)CO[C@@H]1/C=C/[C@@H](O)COc1ccccc1` [(Z)-8-[(2R,3S,4R)-4-Hydroxy-2-((E)-(R)-3-hydroxy-4-phenoxy-but-1-enyl)-tetrahydro-furan-3-yl]-oct-6-enoic acid], 293 nM.

`O=C(O)CC/C=C\CCC[C@H]1[C@@H](O)CO[C@@H]1/C=C/[C@H](O)COc1ccccc1` [(Z)-8-[(2R,3S,4R)-4-Hydroxy-2-((E)-(S)-3-hydroxy-4-phenoxy-but-1-enyl)-tetrahydro-furan-3-yl]-oct-4-enoic acid] yielded a 50% effective concentration (EC50) of 252 nM. With `O=C(O)CCCC/C=C\C[C@H]1[C@@H](O)CO[C@@H]1/C=C/[C@H](O)COc1ccccc1` [(Z)-8-[(R)-4-Hydroxy-2-((1R,2S,4S)-3-hydroxy-4-phenoxy-but-1-enyl)-tetrahydro-furan-3-yl]-oct-6-enoic acid] the figure was 573 nM; with `O=C(O)CC/C=C\CCC[C@H]1[C@@H](O)CO[C@@H]1/C=C/[C@@H](O)COc1cccc(Cl)c1` [(Z)-8-{(2R,3S,4R)-2-[(E)-(R)-4-(3-Chloro-phenoxy)-3-hydroxy-but-1-enyl]-4-hydroxy-tetrahydro-furan-3-yl}-oct-4-enoic acid], 23 nM; with `O=C(O)CCCC/C=C\C[C@H]1[C@@H](O)CO[C@@H]1/C=C/[C@@H](O)COc1cccc(Cl)c1` [(Z)-8-{(2R,3S,4R)-2-[(E)-(R)-4-(3-Chloro-phenoxy)-3-hydroxy-but-1-enyl]-4-hydroxy-tetrahydro-furan-3-yl}-oct-6-enoic acid], 58 nM. With `O=C(O)CC/C=C\CCC[C@H]1[C@@H](O)CO[C@@H]1/C=C/[C@H](O)COc1cccc(Cl)c1` [(Z)-8-{(2R,3S,4R)-2-[(E)-(S)-4-(3-Chloro-phenoxy)-3-hydroxy-but-1-enyl]-4-hydroxy-tetrahydro-furan-3-yl}-oct-4-enoic acid] the figure was 249 nM; with `O=C(O)CCCC/C=C\C[C@H]1[C@@H](O)CO[C@@H]1/C=C/[C@H](O)COc1cccc(Cl)c1` [(Z)-8-{(2R,3S,4R)-2-[(E)-(S)-4-(3-Chloro-phenoxy)-3-hydroxy-but-1-enyl]-4-hydroxy-tetrahydro-furan-3-yl}-oct-6-enoic acid], 194 nM.

Take `O=C(O)CC/C=C\CCC[C@H]1[C@@H](O)CO[C@@H]1/C=C/[C@@H](O)COc1cccc(C(F)(F)F)c1` [(Z)-8-{(2R,3S,4R)-4-Hydroxy-2-[(E)-(R)-3-hydroxy-4-(3-trifluoromethyl-phenoxy)-but-1-enyl]-tetrahydro-furan-3-yl}-oct-4-enoic acid]: the EC50 came out at 67 nM.

As for `O=C(O)CCCC/C=C\C[C@H]1[C@@H](O)CO[C@@H]1/C=C/[C@@H](O)COc1cccc(C(F)(F)F)c1` [(Z)-8-{(2R,3S,4R)-4-Hydroxy-2-[(E)-(R)-3-hydroxy-4-(3-trifluoromethyl-phenoxy)-but-1-enyl]-tetrahydro-furan-3-yl}-oct-6-enoic acid], the midpoint of the response, the EC50, lay at 187 nM. As for `O=C(O)CC/C=C\CCC[C@H]1[C@@H](O)CO[C@@H]1/C=C/[C@H](O)COc1cccc(C(F)(F)F)c1` [(Z)-8-{(2R,3S,4R)-4-Hydroxy-2-[(E)-(S)-3-hydroxy-4-(3-trifluoromethyl-phenoxy)-but-1-enyl]-tetrahydro-furan-3-yl}-oct-4-enoic acid], the EC50 is 781 nM. The molecule `O=C(O)CCCC/C=C\C[C@H]1[C@@H](O)CO[C@@H]1/C=C/[C@H](O)COc1cccc(C(F)(F)F)c1` [(Z)-8-{(2R,3S,4R)-4-Hydroxy-2-[(E)-(S)-3-hydroxy-4-(3-trifluoromethyl-phenoxy)-but-1-enyl]-tetrahydro-furan-3-yl}-oct-6-enoic acid] had an EC50 of 899 nM. With `CC(C)OC(=O)CCC/C=C/C[C@@H]1[C@@H](CC[C@@H](O)CCc2ccccc2)[C@H](O)C[C@@H]1O` [LATANOPROST (PHXA41)] the figure was 34.4 nM.

The values above are taken from BindingDB's records for doi:10.1016/j.bmcl.2004.06.037 (Alcon Research, 2004).
